Results reported in US6737383B1, “Herbicidal oxadiazolidines” (priority 1999, dated 2004).

Key:
[1] = system: wild oat; test: Test B pre/postemergence wild oat; assay type: in vivo, Avena fatua
Method in brief: (§1)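 Test chemicals in a non-phytotoxic solvent mixture with surfactant were sprayed preemergence onto planted seeds and postemergence onto plants 2 to 18 cm tall (1- to 4-leaf stage). After twelve to sixteen days in a greenhouse, injury was visually rated against untreated controls from 0 (no effect) to 10 (complete control).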

[2] = system: purple nutsedge; test: Test B pre/postemergence purple nutsedge; assay type: in vivo, Cyperus rotundus
Method in brief: as §1

[3] = system: morningglory; test: Test B pre/postemergence morningglory; assay type: in vivo, Ipomoea hederacea
Method in brief: as §1

[4] = system: surinam grass; test: Test B pre/postemergence surinam grass; assay type: in vivo, Brachiaria decumbens
Method in brief: as §1

[5] = system: soybean; test: Test B pre/postemergence soybean; assay type: in vivo, Glycine max
Method in brief: as §1

[6] = system: velvetleaf; test: Test B pre/postemergence velvetleaf; assay type: in vivo, Abutilon theophrasti
Method in brief: as §1

[7] = system: bedstraw; test: Test B pre/postemergence bedstraw; assay type: in vivo, Galium aparine
Method in brief: as §1

[8] = system: crabgrass; test: Test B pre/postemergence crabgrass; assay type: in vivo, Digitaria sanguinalis
Method in brief: as §1

[9] = system: duck salad; test: Test B flood test duck salad; assay type: in vivo, Heteranthera limosa
Method in brief: (§2)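 Flood test on plants grown to the 2-leaf stage; treated plants kept in greenhouse twelve to sixteen days, then visually rated against controls on a 0 (no effect) to 10 (complete control) scale.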

[10] = system: rape; test: Test B pre/postemergence rape; assay type: in vivo, Brassica napus
Method in brief: as §1

[11] = system: pigweed; test: Test B pre/postemergence pigweed; assay type: in vivo, Amaranthus retroflexus
Method in brief: as §1

[12] = system: giant foxtail; test: Test B pre/postemergence giant foxtail; assay type: in vivo, Setaria faberii
Method in brief: as §1

[13] = system: corn; test: Test B pre/postemergence corn; assay type: in vivo, Zea mays
Method in brief: as §1

[14] = system: blackgrass; test: Test B pre/postemergence blackgrass; assay type: in vivo, Alopecurus myosuroides
Method in brief: as §1

[15] = system: wheat; test: Test B pre/postemergence wheat; assay type: in vivo, Triticum aestivum
Method in brief: as §1

[16] = system: rice; test: Test B flood test rice; assay type: in vivo, Oryza sativa
Method in brief: as §2

[17] = Preemergence, Rate 62 g/ha, scale of 0 to 10 where 0 is no effect and 10 is complete control
[18] = Preemergence, Rate 250 g/ha, scale of 0 to 10 where 0 is no effect and 10 is complete control
[19] = Preemergence, Rate 500 g/ha, scale of 0 to 10 where 0 is no effect and 10 is complete control
[20] = Rate 62 g/ha, Postemergence, scale 0 to 10 (0 no effect, 10 complete control)
[21] = Rate 125 g/ha, Postemergence, scale of 0 to 10 where 0 is no effect and 10 is complete control
[22] = Rate 250 g/ha, Postemergence, scale of 0 to 10 where 0 is no effect and 10 is complete control
[23] = Rate 500 g/ha, Postemergence, scale 0 to 10, 0 no effect, 10 complete control
[24] = Rate 62 g/ha, headed Pre-emergence (flood test species), scale 0 to 10 (0 no effect, 10 complete control)
[25] = Rate 125 g/ha, Pre-emergence, flood test species, scale 0 to 10 where 0 is no effect and 10 is complete control
[26] = Rate 250 g/ha, Pre-emergence, flood-test species, scale 0 to 10, 0 is no effect, 10 is complete control
[27] = Rate 500 g/ha, Pre-emergence, flood test species, scale 0 to 10 (0 no effect, 10 complete control)

**Q.** With `CC(C)N(C(=O)n1oc(=O)n(Cc2nnsc2Cl)c1=O)c1ccccc1` [Compound 321] as the compound, how does the “Wild oats plant response rating” value [1, 17] read?
**A.** 0

**Q.** And the “Wild oats plant response rating (0 to 10 scale)” value ([1]; Preemergence, Rate 125 g/ha)?
**A.** 0

**Q.** What about the “Wild oats plant response rating” value [1, 18] of the same compound?
**A.** 2

**Q.** And the “Wild oats plant response rating” value [1, 19]?
**A.** 5

**Q.** What about the “Wild oats plant response rating” value [1, 20] of the same compound?
**A.** 0

**Q.** And the “Wild oats plant response rating” value [1, 21]?
**A.** 0

**Q.** What about the “Plant response rating, Wild oats” value [1, 22] of the same compound?
**A.** 0

**Q.** What about the “Nutsedge plant response rating” value [2, 17] of the same compound?
**A.** 0

**Q.** What about the “Nutsedge plant response rating (0 to 10 scale)” value ([2]; Preemergence, Rate 125 g/ha) of the same compound?
**A.** 0

**Q.** And the “Nutsedge plant response rating” value [2, 19]?
**A.** 0

**Q.** And the “Nutsedge plant response rating” value [2, 20]?
**A.** 0

**Q.** And the “Nutsedge plant response rating” value [2, 21]?
**A.** 0

**Q.** And the “Plant response rating, Nutsedge” value [2, 22]?
**A.** 0

**Q.** What about the “Morningglory plant response rating” value [3, 17] of the same compound?
**A.** 0

**Q.** And the “Morningglory plant response rating (0 to 10 scale)” value ([3]; Preemergence, Rate 125 g/ha)?
**A.** 0

**Q.** What about the “Morningglory plant response rating” value [3, 18] of the same compound?
**A.** 0

**Q.** What about the “Morningglory plant response rating” value [3, 19] of the same compound?
**A.** 0

**Q.** What about the “Morningglory plant response rating” value [3, 20] of the same compound?
**A.** 2

**Q.** And the “Morningglory plant response rating” value [3, 21]?
**A.** 7

**Q.** And the “Plant response rating, Morningglory” value [3, 22]?
**A.** 8

**Q.** What about the “B. signalgrass plant response rating” value [4, 17] of the same compound?
**A.** 0

**Q.** What about the “B. signalgrass plant response rating (0 to 10 scale, 0 is no effect, 10 is complete control)” value ([4]; Preemergence, Rate 125 g/ha) of the same compound?
**A.** 0

**Q.** What about the “B. signalgrass plant response rating” value [4, 18] of the same compound?
**A.** 3

**Q.** And the “B. signalgrass plant response rating” value [4, 19]?
**A.** 5

**Q.** What about the “B. signalgrass plant response rating” value [4, 20] of the same compound?
**A.** 0

**Q.** And the “B. signalgrass plant response rating” value [4, 21]?
**A.** 0

**Q.** And the “Plant response rating, B. signalgrass” value [4, 22]?
**A.** 0

**Q.** And the “B. signalgrass plant response rating” value [4, 23]?
**A.** 0

**Q.** What about the “Soybean plant response rating” value [5, 17] of the same compound?
**A.** 0

**Q.** And the “Soybean plant response rating (0 to 10 scale)” value ([5]; Preemergence, Rate 125 g/ha)?
**A.** 0

**Q.** What about the “Soybean plant response rating” value [5, 18] of the same compound?
**A.** 0

**Q.** And the “Soybean plant response rating” value [5, 19]?
**A.** 0

**Q.** What about the “Soybean plant response rating” value [5, 20] of the same compound?
**A.** 2

**Q.** What about the “Plant response rating, Soybean” value [5, 22] of the same compound?
**A.** 3

**Q.** What about the “Velvetleaf plant response rating” value [6, 17] of the same compound?
**A.** 0

**Q.** And the “Velvetleaf plant response rating (0 to 10 scale)” value ([6]; Preemergence, Rate 125 g/ha)?
**A.** 0

**Q.** What about the “Velvetleaf plant response rating” value [6, 18] of the same compound?
**A.** 0

**Q.** What about the “Velvetleaf plant response rating” value [6, 19] of the same compound?
**A.** 0

**Q.** What about the “Velvetleaf plant response rating” value [6, 20] of the same compound?
**A.** 0

**Q.** What about the “Velvetleaf plant response rating” value [6, 21] of the same compound?
**A.** 0

**Q.** What about the “Plant response rating, Velvetleaf” value [6, 22] of the same compound?
**A.** 0

**Q.** What about the “Bedstraw plant response rating” value [7, 17] of the same compound?
**A.** 0

**Q.** What about the “Bedstraw plant response rating” value [7, 19] of the same compound?
**A.** 3

**Q.** And the “Bedstraw plant response rating” value [7, 20]?
**A.** 0

**Q.** What about the “Bedstraw plant response rating” value [7, 21] of the same compound?
**A.** 4

**Q.** And the “Plant response rating, Bedstraw” value [7, 22]?
**A.** 8

**Q.** What about the “Crabgrass plant response rating” value [8, 17] of the same compound?
**A.** 0

**Q.** What about the “Crabgrass plant response rating (0 to 10 scale)” value ([8]; Preemergence, Rate 125 g/ha) of the same compound?
**A.** 2

**Q.** And the “Crabgrass plant response rating” value [8, 18]?
**A.** 3

**Q.** And the “Crabgrass plant response rating” value [8, 19]?
**A.** 4

**Q.** What about the “Crabgrass plant response rating” value [8, 20] of the same compound?
**A.** 0

**Q.** And the “Crabgrass plant response rating” value [8, 21]?
**A.** 0

**Q.** What about the “Plant response rating, Crabgrass” value [8, 22] of the same compound?
**A.** 2

**Q.** And the “Ducksalad plant response rating” value [9, 24]?
**A.** 0

**Q.** And the “Ducksalad plant response rating” value [9, 25]?
**A.** 0

**Q.** And the “Ducksalad plant response rating” value [9, 26]?
**A.** 0

**Q.** And the “Ducksalad plant response rating” value [9, 27]?
**A.** 0

**Q.** And the “Rape plant response rating” value [10, 17]?
**A.** 0

**Q.** And the “Rape plant response rating (0 to 10 scale)” value ([10]; Preemergence, Rate 125 g/ha)?
**A.** 0

**Q.** And the “Rape plant response rating” value [10, 18]?
**A.** 0

**Q.** And the “Rape plant response rating” value [10, 19]?
**A.** 0

**Q.** And the “Rape plant response rating” value [10, 20]?
**A.** 0

**Q.** And the “Rape plant response rating” value [10, 21]?
**A.** 0

**Q.** And the “Plant response rating, Rape” value [10, 22]?
**A.** 0

**Q.** And the “Redroot pigweed plant response rating” value [11, 17]?
**A.** 0

**Q.** And the “Redroot pigweed plant response rating (0 to 10 scale)” value ([11]; Preemergence, Rate 125 g/ha)?
**A.** 0

**Q.** What about the “Redroot pigweed plant response rating” value [11, 18] of the same compound?
**A.** 0

**Q.** And the “Redroot pigweed plant response rating” value [11, 19]?
**A.** 0

**Q.** And the “Redroot pigweed plant response rating” value [11, 20]?
**A.** 2

**Q.** What about the “Redroot pigweed plant response rating” value [11, 21] of the same compound?
**A.** 3

**Q.** And the “Plant response rating, Redroot pigweed” value [11, 22]?
**A.** 4

**Q.** What about the “Giant foxtail plant response rating” value [12, 17] of the same compound?
**A.** 4

**Q.** And the “Giant foxtail plant response rating (0 to 10 scale)” value ([12]; Preemergence, Rate 125 g/ha)?
**A.** 8

**Q.** And the “Giant foxtail plant response rating” value [12, 18]?
**A.** 9

**Q.** And the “Giant foxtail plant response rating” value [12, 19]?
**A.** 10

**Q.** And the “Giant foxtail plant response rating” value [12, 20]?
**A.** 0

**Q.** And the “Giant foxtail plant response rating” value [12, 21]?
**A.** 0

**Q.** What about the “Plant response rating, Giant foxtail” value [12, 22] of the same compound?
**A.** 1

**Q.** What about the “Corn plant response rating” value [13, 17] of the same compound?
**A.** 0

**Q.** And the “Corn plant response rating (0 to 10 scale)” value ([13]; Preemergence, Rate 125 g/ha)?
**A.** 0

**Q.** What about the “Corn plant response rating” value [13, 18] of the same compound?
**A.** 0

**Q.** What about the “Corn plant response rating” value [13, 19] of the same compound?
**A.** 0

**Q.** What about the “Corn plant response rating” value [13, 20] of the same compound?
**A.** 0

**Q.** What about the “Corn plant response rating” value [13, 21] of the same compound?
**A.** 0

**Q.** What about the “Plant response rating, Corn” value [13, 22] of the same compound?
**A.** 0

**Q.** And the “Corn plant response rating” value [13, 23]?
**A.** 0

**Q.** What about the “Blackgrass plant response rating” value [14, 17] of the same compound?
**A.** 3

**Q.** What about the “Blackgrass plant response rating (0 to 10 scale)” value ([14]; Preemergence, Rate 125 g/ha) of the same compound?
**A.** 6

**Q.** And the “Blackgrass plant response rating” value [14, 18]?
**A.** 6

**Q.** What about the “Blackgrass plant response rating” value [14, 19] of the same compound?
**A.** 7

**Q.** What about the “Blackgrass plant response rating” value [14, 20] of the same compound?
**A.** 0

**Q.** What about the “Blackgrass plant response rating” value [14, 21] of the same compound?
**A.** 0

**Q.** What about the “Plant response rating, Blackgrass” value [14, 22] of the same compound?
**A.** 0

**Q.** And the “Blackgrass plant response rating” value [14, 23]?
**A.** 4

**Q.** And the “Wheat plant response rating” value [15, 17]?
**A.** 0

**Q.** And the “Wheat plant response rating (0 to 10 scale)” value ([15]; Preemergence, Rate 125 g/ha)?
**A.** 0

**Q.** What about the “Wheat plant response rating” value [15, 18] of the same compound?
**A.** 0

**Q.** And the “Wheat plant response rating” value [15, 19]?
**A.** 0

**Q.** And the “Wheat plant response rating” value [15, 20]?
**A.** 0

**Q.** And the “Wheat plant response rating” value [15, 21]?
**A.** 0

**Q.** And the “Plant response rating, Wheat” value [15, 22]?
**A.** 0

**Q.** And the “Rice plant response rating” value [16, 24]?
**A.** 0

**Q.** What about the “Rice plant response rating” value [16, 25] of the same compound?
**A.** 0

**Q.** And the “Rice plant response rating” value [16, 26]?
**A.** 0

**Q.** What about the “Rice plant response rating” value [16, 27] of the same compound?
**A.** 0
